Measurements as given in patent publication US8377991B2, “Trans-clomiphene for metabolic syndrome” (priority 2007, dated 2013).
Structures can show the parent of a compound that is named as a salt. Each block holds one compound with its values, some of them ahead of it.

Key:
[1] = in vivo
Protocol: Adult, male, Baboons were given 1.5 mg/kg of Clomid (clomiphene citrate), Enclomid (trans-Clomiphene) or Zuclomid (cis-clomiphene) for 12 consecutive days. The samples analyzed were sera taken on the day of first treatment before being given test article (day 0), after 12 days of treatment (day 12) and 7 days after the last treatment (end or wash-out).

total serum testosterone = assay: Serum testosterone in male baboons given Clomid, Enclomid or Zuclomid; format: in vivo; settings: for effect on total serum testosterone: 1.5 mg/kg for 12 days, vs baseline or day 0
Text: There were significant increases in total serum testosterone in the group receiving Enclomid. There were no differences among groups in the baseline period or at day 0. There were also no differences among the three groups 7 days after treatment (the washout period). However, Enclomid produced higher levels of testosterone compared to Clomid and Zuclomid on day 6 (p=0.03 and p=0.00002 respectively) and compared to Zuclomid on day 12 (p=0.047). […] Enclomid was clearly better and more consistent than Clomid itself and Zuclomid was ineffective.

serum LH and FSH = settings: hypogonadal male subjects, two week treatment
Protocol: (§1) A placebo controlled challenge study was conducted at the Advanced Biological Research, Inc. (ABR) Clinical Research Center in Hackensack, N.J. to compare orally administered Androxal™ (trans-clomiphene) to Androgel® in hypogonadal men.
(§2) Half of the men in each of the Androxal™ and placebo arms were randomized into cohorts that underwent in-clinic sessions on days 1 and 14 to determine pharmacokinetic parameters for Androxal™ as well as cyclical changes in testosterone. The placebo and Androxal™ doses were administered in a double blind fashion. The Androgel® cream was administered in an open label fashion. Half of the Androgel® patients underwent in-clinic sessions similar to the other patients in the study. Following the two week drug exposure, patients were followed for an additional seven to ten days to determine the status of their testosterone levels.

serum LH, FSH, PRL = assay: Body weight and serum LH, FSH, PRL in male baboons; format: in vivo; settings: during the study
Text: There were no changes in serum LH or FSH. […] There was also no change in body weight during the 12 day study.

total testosterone = settings: hypogonadal men; 50 mg dose
Protocol: as §1, §2

[2] = Androxal vs Androgel study: other clinical chemistry (DHT/TT, triglycerides) and side effects; format: in vivo; settings: hypogonadal men, after two weeks of therapy; non-dose dependent
fasting glucose levels = settings: patients with BMI>26; 50 mg dose; at the 3 and 4.5 month periods
Protocol: A placebo controlled study was conducted to determine the effects of orally administered Androxal™ (trans-clomiphene) and Androgel® on blood glucose levels.
The study enrolled hypogonadal men (testosterone less than 300 ng/dl) with a broad range of body mass indices (BMI). […] The placebo and Androxal™ doses were administered in a double blind fashion. The Androgel® cream was administered in an open label fashion. Fasting glucose levels were monitored in the patients immediately prior to treatment (baseline) and at regular intervals during the study.

Structure (SMILES): CCN(CC)CCOc1ccc(C(=C(Cl)c2ccccc2)c2ccccc2)cc1 [Clomid, clomiphene citrate]
ALT/SGPT [1]: out of range low at the end of the study
BUN and BUN/creatinine [1]: altered during the study
serum carbon dioxide [1]: higher than reference values on day 12
increase in serum glucose ([1]; 1.5 mg/kg): within the normal range
effect on total serum testosterone (total serum testosterone): more variable total testosterone levels on day 6 and later

Structure (SMILES): CCN(CC)CCOc1ccc(/C(=C(\Cl)c2ccccc2)c2ccccc2)cc1 [Enclomid, trans-clomiphene]
serum levels of FSH (serum LH and FSH): boosts serum FSH
BUN and BUN/creatinine [1]: altered during the study
percent of granulocytes in the blood [1]: strong effect of Enclomid on lowering the percent of granulocytes
platelet count [1]: pushed the platelet count to its normal male level
serum alkaline phosphatase (ALP) [1]: decreased in value
counts of eosinophiles ([1]; 1.5 mg/kg): raising the counts of lymphocytes and eosinophiles
effects on the red blood cell population ([1]; 1.5 mg/kg): substantive effects on the red blood cell population
increase in serum glucose ([1]; 1.5 mg/kg): no increases with treatment
serum prolactin (PRL) (serum LH, FSH, PRL): decrease in serum prolactin (PRL)
mean total testosterone after 15 days (total testosterone): 589 ± 172 ng/dL
reduction in triglycerides, average decrease [2]: 19.1%
reduction in serum glucose from baseline (fasting glucose levels): ~24 mg/dL
effect on total serum testosterone (total serum testosterone): significantly and statistically raised total serum testosterone on days 6 and 12
total serum testosterone after cessation of treatment (total serum testosterone; day 12 to day 18 (washout)): significant drop in the level of total serum testosterone between day 12 and day 18

serum alkaline phosphatase (ALP) [1]: not elevated
serum carbon dioxide [1]: higher than reference values on day 12
increase in serum glucose ([1]; 1.5 mg/kg): within the normal range
Structure (SMILES): CCN(CC)CCOc1ccc(/C(=C(/Cl)c2ccccc2)c2ccccc2)cc1 [Zuclomid, cis-clomiphene]
effects on the red blood cell population ([1]; 1.5 mg/kg): substantive effects on the red blood cell population
